Assay results taken from US4771076A, “[(2-substituted 1,2-dihydro-1-oxo-1H-inden-5-yl)oxy]alkanesulfonic acids and salts thereof” (Merck & Co., Inc., priority 1987, dated 1988).

Tested on: cerebrocortical cat brain tissue slice
Assay: In vitro Cerebrocortical Cat Brain Tissue Slice Assay (inhibition of HCO3^- -stimulated swelling)
Assay type: cell-based
Settings: Felis catus, 1 h, 27 mM K^+, 10 mM HCO3^-, 37° C., 60 min incubation
Protocol: See, e.g., Bourke et al., Neurochem. Res., 8, 5 (1983), and Cragoe et al., J. Med. Chem., 25, 567 (1982).
In Vitro Cerebrocortical Cat Brain Tissue Slice Assay
Adult cats of 2-3 kg body weight were employed in tissue slice studies. Prior to sacrifice, the animals were anesthetized with ketamine hydrochloride, 10 mg/kg intramuscularly. Eight (three control, five experimental) pial surface cerebrocortical tissue slices (0.5 mm thick; approximately 150 mg initial fresh weight) were cut successively with a calibrated Stadie-Riggs fresh tissue microtome without moistening and weighed successively on a torsion balance. […]
Following the 60-minute incubation period, tissue slices were separated from incubation medium by filtration, reweighed, and homogenized in 1N HClO4 (10% w/v) for electrolyte analysis. […] Control slice swelling is expressed as microliters per gram initial preswelling fresh weight. The effectiveness of an inhibitor at a given concentration was measured by the amount of HCO3^- -stimulated swelling that occurred in its presence, computed as a percent of the maximum possible and is reported as an IC50, (See, e.g., Table I (Example 6)). Tissue and media Na^+ and K^+ levels were determined by emission flame photometry with Li^+ internal standard; Cl^- levels were determined by amperometric titration. Tissue viability during incubation is monitored by manometry.

SMILES	IC50 [nM]
CC1(C2CCCC2)Cc2cc(OCCCS(=O)(=O)O)c(Cl)c(Cl)c2C1=O (centres unmarked) [Example 1, Sodium 3-[(6,7-dichloro-2-cyclopentyl-2-methyl-1-oxo-2,3-dihydro-1H-inden-5-yl)oxy]propanesulfonate hydrate]	20
CC1(C2CCCC2)Cc2cc(OCCCS(=O)(=O)O)c(Cl)c(Cl)c2C1=O (single isomer, unassigned) [Example 2, Sodium (+)3-[(6,7-dichloro-2-cyclopentyl-2-methyl-1-oxo-2,3-dihydro-1H-inden-5-yl)oxy]propanesulfonate hydrate]	20
